ChEMBL document CHEMBL3774345, “Synthesis of new diarylamides with pyrimidinyl pyridine scaffold and evaluation of their anti-proliferative effect on cancer cell lines” (Bioorg Med Chem Lett, 2016)

How the values were obtained:
Assay type in all cases: functional
NCI-H322M = test: Cytotoxicity against human NCI-H322M cells assessed as cell growth at 10 uM after 24 hrs by SRB assay; settings: read-out: Activity
[1] = Cytotoxicity against human SF268 cells assessed as cell growth at 10 uM after 24 hrs by SRB assay; settings: SF-268, 24 h, read-out: Activity
[2] = Cytotoxicity against human SF295 cells assessed as cell growth at 10 uM after 24 hrs by SRB assay; settings: SF-295, 24 h, read-out: Activity
[3] = Cytotoxicity against human SNB75 cells assessed as cell growth at 10 uM after 24 hrs by SRB assay; settings: SNB-75, 24 h, read-out: Activity
Malme-3M = test: Cytotoxicity against human MALME-3M cells assessed as cell growth at 10 uM after 24 hrs by SRB assay; settings: read-out: Activity
SK-MEL-5 [4] = test: Cytotoxicity against human SK-MEL-5 cells assessed as cell growth at 10 uM after 24 hrs by SRB assay; settings: SK-MEL-5, 24 h, read-out: Activity
[5] = Cytotoxicity against human OVCAR5 cells assessed as cell growth at 10 uM after 24 hrs by SRB assay; settings: OVCAR-5, 24 h, read-out: Activity
[6] = Cytotoxicity against human SKOV3 cells assessed as cell growth at 10 uM after 24 hrs by SRB assay; settings: SK-OV-3, 24 h, read-out: Activity
ACHN = test: Cytotoxicity against human ACHN cells assessed as cell growth at 10 uM after 24 hrs by SRB assay; settings: read-out: Activity
[7] = Cytotoxicity against human RXF393 cells assessed as cell growth at 10 uM after 24 hrs by SRB assay; settings: RXF 393, 24 h, read-out: Activity
SN12C = test: Cytotoxicity against human SN12C cells assessed as cell growth at 10 uM after 24 hrs by SRB assay; settings: read-out: Activity
[8] = Cytotoxicity against human UO31 cells assessed as cell growth at 10 uM after 24 hrs by SRB assay; settings: UO-31, 24 h, read-out: Activity
[9] = Cytotoxicity against human DU145 cells assessed as cell growth at 10 uM after 24 hrs by SRB assay; settings: DU-145, 24 h, read-out: Activity
[10] = Cytotoxicity against human Hs 578T cells assessed as cell growth at 10 uM after 24 hrs by SRB assay; settings: read-out: Activity
T47D [11] = test: Cytotoxicity against human T47D cells assessed as cell growth at 10 uM after 24 hrs by SRB assay; settings: read-out: Activity
[12] = Cytotoxicity against human NCI60 cells assessed as growth inhibition at 10 uM after 24 hrs by SRB assay; settings: NCI60, 24 h
CCRF-CEM = test: Cytotoxicity against human CCRF-CEM cells assessed as cell growth at 10 uM after 24 hrs by SRB assay; settings: read-out: Activity
[13] = Cytotoxicity against human HL-60(TB) cells assessed as cell growth at 10 uM after 24 hrs by SRB assay; settings: HL-60, 24 h, read-out: Activity
[14] = Cytotoxicity against human RPMI8226 cells assessed as cell growth at 10 uM after 24 hrs by SRB assay; settings: RPMI-8226, 24 h, read-out: Activity
SR = test: Cytotoxicity against human SR cells assessed as cell growth at 10 uM after 24 hrs by SRB assay; settings: read-out: Activity
EKVX = test: Cytotoxicity against human EKVX cells assessed as cell growth at 10 uM after 24 hrs by SRB assay; settings: read-out: Activity
[15] = Cytotoxicity against human HOP92 cells assessed as cell growth at 10 uM after 24 hrs by SRB assay; settings: HOP-92, 24 h, read-out: Activity
[16] = Cytotoxicity against human UO31 cells assessed as growth inhibition at 10 uM after 24 hrs by SRB assay; settings: UO-31, 24 h, read-out: GI
SK-MEL-5 [17] = test: Cytotoxicity against human SK-MEL-5 cells assessed as growth inhibition at 10 uM after 24 hrs by SRB assay; settings: SK-MEL-5, 24 h, read-out: GI
MDA-MB-231 = test: Cytotoxicity against human MDA-MB-231 cells assessed as growth inhibition at 10 uM after 24 hrs by SRB assay; settings: MDA-MB-231, 24 h, read-out: GI
T47D [18] = test: Cytotoxicity against human T47D cells assessed as growth inhibition at 10 uM after 24 hrs by SRB assay; settings: read-out: GI
K562 = test: Cytotoxicity against human K562 cells assessed as growth inhibition at 10 uM after 24 hrs by SRB assay; settings: K562, 24 h, read-out: GI
NCI-H226 = test: Cytotoxicity against human NCI-H226 cells assessed as growth inhibition at 10 uM after 24 hrs by SRB assay; settings: NCI-H226, 24 h, read-out: GI
A498 = test: Cytotoxicity against human A498 cells assessed as growth inhibition at 10 uM after 24 hrs by SRB assay; settings: A498, 24 h, read-out: GI
[19] = Cytotoxicity against human HOP92 cells assessed as growth inhibition at 10 uM after 24 hrs by SRB assay; settings: HOP-92, 24 h, read-out: GI
NCI-H522 = test: Cytotoxicity against human NCI-H522 cells assessed as growth inhibition at 10 uM after 24 hrs by SRB assay; settings: NCI-H522, 24 h, read-out: GI
[20] = Cytotoxicity against human RPMI8226 cells assessed as growth inhibition at 10 uM after 24 hrs by SRB assay; settings: RPMI-8226, 24 h, read-out: GI

SMILES | growth at 10 µM (NCI-H322M) | growth at 10 µM [1] | growth at 10 µM [2] | growth at 10 µM [3] | growth at 10 µM (Malme-3M) | growth at 10 µM (SK-MEL-5 [4]) | growth at 10 µM [5] | growth at 10 µM [6] | growth at 10 µM (ACHN) | growth at 10 µM [7] | growth at 10 µM (SN12C) | growth at 10 µM [8] | growth at 10 µM [9] | growth at 10 µM [10] | growth at 10 µM (T47D [11]) | inhibition at 10 µM [12] | growth at 10 µM (CCRF-CEM) | growth at 10 µM [14] | growth at 10 µM (SR) | growth at 10 µM (EKVX) | also measured
COc1cc(OC)cc(C(=O)Nc2cc(-c3cccnc3)nc(NCCCN3CCOCC3)n2)c1 | 90.9% | 94.1% | 101% | 109% | 110% | 68.3% | 100% | 93.9% | 103% | 93.9% | 86.4% | 53.6% | 104% | 69% | 72.8% | 8.88% | 90.8% | 79.1% | 57.9% | 103% | growth at 10 µM [13]: 86.5%; growth at 10 µM [15]: 67.7%; inhibition of growth at 10 µM [16]: 46.4%; inhibition of growth at 10 µM (SK-MEL-5 [17]): 31.7%; inhibition of growth at 10 µM (MDA-MB-231): 20.4%; inhibition of growth at 10 µM (T47D [18]): 27.2%; inhibition of growth at 10 µM (K562): 25.9%; inhibition of growth at 10 µM (NCI-H226): 32.3%
Cc1cc(Cl)ccc1C(=O)Nc1cc(-c2cccnc2)nc(NCCCN2CCOCC2)n1 | 102% | 101% | 97.9% | 91.3% | 104% | 92.7% | 94.1% | 93.7% | 100% | 101% | 111% | 89.2% | 97.6% | 96.9% | 96.4% | 1.46% | 101% | 104% | 98.7% | 99.8% | growth at 10 µM [15]: 95.9%; inhibition of growth at 10 µM (A498): 22.8%; inhibition of growth at 10 µM (NCI-H226): 22.4%
COCCCNc1nc(NC(=O)c2cc(OC)cc(OC)c2)cc(-c2cccnc2)n1 | 92.8% | 100% | 100% | 73.1% | 112% | 72.4% | 95.7% | 105% | 98.2% | 97.7% | 95.3% | 56.7% | 101% | 95.3% | 63.8% | 8.06% | 91.7% | 69.3% | 80.6% | 105% | growth at 10 µM [13]: 90.2%; growth at 10 µM [15]: 52.6%; inhibition of growth at 10 µM [19]: 47.4%; inhibition of growth at 10 µM (NCI-H522): 23.5%; inhibition of growth at 10 µM [16]: 43.3%; inhibition of growth at 10 µM [20]: 30.6%; inhibition of growth at 10 µM (SK-MEL-5 [17]): 27.6%; inhibition of growth at 10 µM (MDA-MB-231): 30.9%; inhibition of growth at 10 µM (T47D [18]): 36.2%
O=C(Nc1cc(-c2cccnc2)nc(NCCCN2CCOCC2)n1)c1ccc(F)cc1Cl | 88.2% | 94.9% | 100% | 112% | 108% | 88% | 100% | 101% | 102% | 102% | 92.1% | 77% | 112% | 105% | 99.5% | 3.57% | 88.3% | 90% | 92.8% | 102% | growth at 10 µM [13]: 83.6%; growth at 10 µM [15]: 91.2%; inhibition of growth at 10 µM [16]: 23%
COCCCNc1nc(NC(=O)c2ccc(Cl)cc2C)cc(-c2cccnc2)n1 | 102% | 104% | 104% | 87.6% | 103% | 84.1% | 91.6% | 98.4% | 99.1% | 91.1% | 111% | 95.9% | 103% | 103% | 89.4% | 0.78% | 96.5% | 90.2% | 110% | 108% | growth at 10 µM [13]: 106%; growth at 10 µM [15]: 67%; inhibition of growth at 10 µM [19]: 33%; inhibition of growth at 10 µM (NCI-H522): 21.4%
COCCCNc1nc(NC(=O)c2cc(Br)cc(C(F)(F)F)c2)cc(-c2cccnc2)n1 | 99.9% | 90.5% | 89.2% | 115% | 99.7% | 70.6% | 100% | 92.2% | 87.3% | 103% | 89.1% | 60.5% | 100% | 83% | 65% | 11.3% | 80.8% | 65.6% | 83.4% | 96% | growth at 10 µM [13]: 94.6%; growth at 10 µM [15]: 57.9%; inhibition of growth at 10 µM [19]: 42.1%; inhibition of growth at 10 µM (A498): 23.8%; inhibition of growth at 10 µM [16]: 39.5%; inhibition of growth at 10 µM [20]: 34.4%; inhibition of growth at 10 µM (SK-MEL-5 [17]): 29.5%; inhibition of growth at 10 µM (MDA-MB-231): 24.2%; inhibition of growth at 10 µM (T47D [18]): 35%; inhibition of growth at 10 µM (K562): 26.7%
